Legend:
[1] = system: RKOp27 colon adenocarcinoma cells arrested by expression of ectopic p27Kip1; assay: Alamar Blue cell viability assay on RKO p27 cells arrested by Ponasterone A induced p27Kip1 (cell cycle specific mode of action); type: cell-based; conditions: Homo sapiens, 72 hours, cells arrested by p27Kip1 induced with 10 μM Ponasterone A
Method: To determine the cell cycle specific mode of action, subclones of RKO colon adenocarcinoma cells (RKOp27 or RKOp21 as described by Schmidt et al. in Oncogene 19, 2423-2429; 2000) are seeded into 96 well flat bottom plates at a density of 16000 cells per well in a volume of 50 μl per well in DMEM growth medium with 10% FCS containing 10 μM Ponasterone A. 24 hours after seeding the 50 μl each of the compound dilutions in DMEM medium are added into each well of the 96 Well plate. Each compound dilution is tested as quadruplicates. Wells containing untreated control cells are filled with 50 μl DMEM medium containing 1% DMSO. The cells are then incubated with the substances for 72 hours at 37° C. in a humidified atmosphere containing 5% carbon dioxide. To determine the viability of the cells, 10 μl of an Alamar Blue solution (Biosource) are added and the fluorescence was measured at an extinction of 544 nm and an emission of 590 nm. For the calculation of the cell viability the emission value from untreated cells is set as 100% viability and the emission rates of treated cells are set in relation to the values of untreated cells. Viabilities are expressed as % values. Viability is compared of proliferating cells grown in the absence of the inducer Ponasterone A, versus viability of cells arrested by the expression of ectopic p27Kip1 induced by Ponasterone A.

[2] = system: RKO (RKOp27) human colon adenocarcinoma cells; assay: Alamar Blue cell viability assay, anti-proliferative/cytotoxic activity on proliferating (uninduced) RKO p27 cells; type: cell-based; conditions: RKOp27, 72 h, proliferating cells without inducer Ponasterone A
Method: The anti-proliferative/cytotoxic activity of the compounds described herein, can be tested on subclones of RKO (RKOp27) human colon adenocarcinoma cells (Schmidt et al., Oncogene 19, 2423-2429; 2000) using the Alamar Blue cell viability assay (described in O'Brien et al. Eur J Biochem 267, 5421-5426, 2000). The compounds are dissolved as 20 mM solutions in dimethylsulfoxide (DMSO) and subsequently diluted in semi-logarithmic steps. DMSO dilutions are further diluted 1:100 into Dulbecco's modified Eagle's medium (DMEM) containing 10% fetal calf serum to a final concentration twice as much as the final concentration in the test. RKO subclones are seeded into 96 well flat bottom plates at a density of 4000 cells per well in a volume of 50 μl per well. 24 hours after seeding the 50 μl each of the compound dilutions in DMEM medium are added into each well of the 96 Well plate. Each compound dilution is tested as quadruplicates. Wells containing untreated control cells are filled with 50 μl DMEM medium containing 1% DMSO. The cells are then incubated with the substances for 72 hours at 37° C. in a humidified atmosphere containing 5% carbon dioxide. To determine the viability of the cells, 10 μl of an Alamar Blue solution (Biosource) are added and the fluorescence is measured at an extinction of 544 nm and an emission of 590 nm. For the calculation of the cell viability the emission value from untreated cells is set as 100% viability and the emission rates of treated cells are set in relation to the values of untreated cells. Viabilities are expressed as % values.
The corresponding IC50 values of the compounds for anti-proliferative/cytotoxic activity are determined from the concentration-effect curves.
Representative IC50 values for anti-proliferation/cytotoxicity determined in the mentioned assay follow from the following table A, in which the numbers of the compound correspond to the numbers of the examples.

What does the source list for `CCOC(=O)N1CCc2c(sc(NC(=O)C3CC3c3cc(C)ccc3OC)c2C#N)C1` (centres unmarked) [Example 54, 3-Cyano-2-({1-[2-(2-methoxy-5-methyl-phenyl)-cyclopropyl]-methanoyl}-amino)-4,7-dihydro-5H-thieno[2,3-c]pyridine-6-carboxylic acid ethyl ester]?
IC50 [1]: > 100000 nM; IC50 [2]: 300 to 2000 nM

How did the IC50 [1] turn out when `COc1ccc(OC)c(CCC(=O)Nc2sc3c(c2C#N)CCN(C(=O)OCCc2ccccn2)C3)c1` [Example 55, 3-Cyano-2-[3-(2,5-dimethoxy-phenyl)-propanoylamino]-4,7-dihydro-5H-thieno[2,3-c]pyridine-6-carboxylic acid 2-pyridin-2-yl-ethyl ester] was run?
The IC50 was > 100000 nM.

What about the IC50 [2] of the same molecule?
The IC50 was 300 to 2000 nM.

For `COc1ccc(C)cc1CCC(=O)Nc1sc2c(c1C#N)CCN(C(=O)OCCN1CCOCC1)C2` [Example 56, 3-Cyano-2-[3-(2-methoxy-5-methyl-phenyl)-propanoylamino]-4,7-dihydro-5H-thieno[2,3-c]pyridine-6-carboxylic acid 2-morpholin-4-yl-ethyl ester], which IC50 [1] is on record?
Its IC50 is > 100000 nM.

What about the IC50 [2] of the same molecule?
The IC50 was 300 to 2000 nM.

How did the IC50 [1] turn out when `COc1ccc(C)cc1CCC(=O)Nc1sc2c(c1C#N)CCN(C(=O)OCc1cnccc1OC)C2` [Example 57, 3-Cyano-2-[3-(2-methoxy-5-methyl-phenyl)-propanoylamino]-4,7-dihydro-5H-thieno[2,3-c]pyridine-6-carboxylic acid 4-methoxy-pyridin-3-ylmethyl ester] was run?
The IC50 was ≥ 40000 nM.

And the IC50 [2]?
The IC50 was 300 to 2000 nM.

`COc1cccc(CCC(=O)Nc2sc3c(c2C#N)CCN(C(=O)OCCn2ccnc2)C3)c1` [Example 58, 3-Cyano-2-[3-(3-methoxy-phenyl)-propanoylamino]-4,7-dihydro-5H-thieno[2,3-c]pyridine-6-carboxylic acid 2-imidazol-1-yl-ethyl ester] was tested. Which IC50 [1] did it give?
The IC50 was > 100000 nM.

And the IC50 [2]?
The IC50 was 300 to 2000 nM.

For `COc1ccccc1CCC(=O)Nc1sc2c(c1C#N)CCN(C(=O)OCCc1cccnc1)C2` [Example 61, 3-Cyano-2-[3-(2-methoxy-phenyl)-propanoylamino]-4,7-dihydro-5H-thieno[2,3-c]pyridine-6-carboxylic acid 2-pyridin-3-yl-ethyl ester], which IC50 [1] is on record?
Its IC50 is > 100000 nM.

What about the IC50 [2] of the same molecule?
The IC50 was ≤ 300 nM.

How did the IC50 [1] turn out when `COc1ccccc1CCC(=O)Nc1sc2c(c1C#N)CCN(C(=O)OCCc1ccncc1)C2` [Example 62, 3-Cyano-2-[3-(2-methoxy-phenyl)-propanoylamino]-4,7-dihydro-5H-thieno[2,3-c]pyridine-6-carboxylic acid 2-pyridin-4-yl-ethyl ester] was run?
Its IC50 is > 100000 nM.

What about the IC50 [2] of the same molecule?
Its IC50 is ≤ 300 nM.

Which IC50 [1] does the source give for `COc1cccc(CCC(=O)Nc2sc3c(c2C#N)CCN(C(=O)OCCc2cccnc2)C3)c1` [Example 63, 3-Cyano-2-[3-(3-methoxy-phenyl)-propanoylamino]-4,7-dihydro-5H-thieno[2,3-c]pyridine-6-carboxylic acid 2-pyridin-3-yl-ethyl ester] here?
The IC50 was ≥ 40000 nM.

And the IC50 [2]?
Its IC50 is ≤ 300 nM.

What does the source list for `COc1cccc(CCC(=O)Nc2sc3c(c2C#N)CCN(C(=O)OCCc2ccncc2)C3)c1` [Example 64, 3-Cyano-2-[3-(3-methoxy-phenyl)-propanoylamino]-4,7-dihydro-5H-thieno[2,3-c]pyridine-6-carboxylic acid 2-pyridin-4-yl-ethyl ester]?
IC50 [1]: > 100000 nM; IC50 [2]: ≤ 300 nM

`COc1ccccc1CCC(=O)Nc1sc2c(c1C#N)CCN(C(=O)OCCn1ccnc1)C2` [Example 73, 3-Cyano-2-[3-(2-methoxy-phenyl)-propanoylamino]-4,7-dihydro-5H-thieno[2,3-c]pyridine-6-carboxylic acid 2-imidazol-1-yl-ethyl ester] was tested. Which IC50 [1] did it give?
The IC50 was > 100000 nM.

And the IC50 [2]?
Its IC50 is ≤ 300 nM.

`COc1ccc(C)cc1CCC(=O)Nc1sc2c(c1C#N)CCN(C(=O)OCCc1ccncc1)C2` [Example 106, 3-Cyano-2-[3-(2-methoxy-5-methyl-phenyl)-propanoylamino]-4,7-dihydro-5H-thieno[2,3-c]pyridine-6-carboxylic acid 2-pyridin-4-yl-ethyl ester] was tested. Which IC50 [1] did it give?
Its IC50 is > 100000 nM.

What about the IC50 [2] of the same molecule?
The IC50 was ≤ 300 nM.

Which IC50 [1] does the source give for `COc1cccc(CCC(=O)Nc2sc3c(c2C#N)CCN(C(=O)OCc2nccn2C)C3)c1` [Example 119, 3-Cyano-2-[3-(3-methoxy-phenyl)-propanoylamino]-4,7-dihydro-5H-thieno[2,3-c]pyridine-6-carboxylic acid 1-methyl-1H-imidazol-2-ylmethyl ester] here?
The IC50 was > 100000 nM.

What about the IC50 [2] of the same molecule?
Its IC50 is ≤ 300 nM.

How did the IC50 [1] turn out when `COc1ccccc1CCC(=O)Nc1sc2c(c1C#N)CCN(C(=O)OCc1nccn1C)C2` [Example 122, 3-Cyano-2-[3-(2-methoxy-phenyl)-propanoylamino]-4,7-dihydro-5H-thieno[2,3-c]pyridine-6-carboxylic acid 1-methyl-1H-imidazol-2-ylmethyl ester] was run?
The IC50 was ≥ 10000 nM.

What about the IC50 [2] of the same molecule?
Its IC50 is ≤ 300 nM.

Which results are given for `COc1ccccc1CCC(=O)Nc1sc2c(c1C#N)CCN(C(=O)OCc1cncn1C)C2` [Example 123, 3-Cyano-2-[3-(2-methoxy-phenyl)-propanoylamino]-4,7-dihydro-5H-thieno[2,3-c]pyridine-6-carboxylic acid 3-methyl-3H-imidazol-4-ylmethyl ester]?
IC50 [1]: > 100000 nM; IC50 [2]: ≤ 300 nM

`COc1ccccc1CCC(=O)Nc1sc2c(c1C#N)CCN(C(=O)OCCn1ccnc1C)C2` [Example 124, 3-Cyano-2-[3-(2-methoxy-phenyl)-propanoylamino]-4,7-dihydro-5H-thieno[2,3-c]pyridine-6-carboxylic acid 2-(2-methyl-imidazol-1-yl)-ethyl ester] was tested. Which IC50 [1] did it give?
Its IC50 is ≥ 10000 nM.

What about the IC50 [2] of the same molecule?
Its IC50 is ≤ 300 nM.

Which results are given for `COc1ccc(C)cc1CCC(=O)Nc1sc2c(c1C#N)CCN(C(=O)OCc1cncn1C)C2` [Example 130, 3-Cyano-2-[3-(2-methoxy-5-methyl-phenyl)-propanoylamino]-4,7-dihydro-5H-thieno[2,3-c]pyridine-6-carboxylic acid 3-methyl-3H-imidazol-4-ylmethyl ester]?
IC50 [1]: ≥ 10000 nM; IC50 [2]: 300 to 2000 nM

Which results are given for `COc1ccc(C)cc1CCC(=O)Nc1sc2c(c1C#N)CCN(C(=O)OCCn1ccnc1C)C2` [Example 131, 3-Cyano-2-[3-(2-methoxy-5-methyl-phenyl)-propanoylamino]-4,7-dihydro-5H-thieno[2,3-c]pyridine-6-carboxylic acid 2-(2-methyl-imidazol-1-yl)-ethyl ester]?
IC50 [1]: ≥ 40000 nM; IC50 [2]: ≤ 300 nM

For `COc1ccc(C)cc1CCC(=O)Nc1sc2c(c1C#N)CCN(C(=O)OCCn1ccnc1)C2` [Example 132, 3-Cyano-2-[3-(2-methoxy-5-methyl-phenyl)-propanoylamino]-4,7-dihydro-5H-thieno[2,3-c]pyridine-6-carboxylic acid 2-imidazol-1-yl-ethyl ester], which IC50 [1] is on record?
The IC50 was ≥ 40000 nM.

And the IC50 [2]?
The IC50 was ≤ 300 nM.

Which results are given for `COc1cccc(CCC(=O)Nc2sc3c(c2C#N)CCN(C(=O)OCCn2cnc(C)c2)C3)c1` [Example 142, 3-Cyano-2-[3-(3-methoxy-phenyl)-propanoylamino]-4,7-dihydro-5H-thieno[2,3-c]pyridine-6-carboxylic acid 2-(4-methyl-imidazol-1-yl)-ethyl ester]?
IC50 [1]: > 100000 nM; IC50 [2]: ≤ 300 nM

What does the source list for `COc1ccccc1CCC(=O)Nc1sc2c(c1C#N)CCN(C(=O)OCC(=O)O)C2` [Example 153, 3-Cyano-2-[3-(2-methoxy-phenyl)-propanoylamino]-4,7-dihydro-5H-thieno[2,3-c]pyridine-6-carboxylic acid carboxymethyl ester]?
IC50 [1]: > 100000 nM; IC50 [2]: 300 to 2000 nM

Which results are given for `COc1ccc(C)cc1CCC(=O)Nc1sc2c(c1C#N)CCN(C(=O)OCC(=O)O)C2` [Example 155, 3-Cyano-2-[3-(2-methoxy-5-methyl-phenyl)-propanoylamino]-4,7-dihydro-5H-thieno[2,3-c]pyridine-6-carboxylic acid carboxymethyl ester]?
IC50 [1]: > 100000 nM; IC50 [2]: 300 to 2000 nM

How did the IC50 [1] turn out when `CCOc1ccccc1CCC(=O)Nc1sc2c(c1C#N)CCN(C(=O)OCC(=O)OC)C2` [Example 190, 3-Cyano-2-[3-(2-ethoxy-phenyl)-propanoylamino]-4,7-dihydro-5H-thieno[2,3-c]pyridine-6-carboxylic acid methoxycarbonylmethyl ester] was run?
Its IC50 is > 100000 nM.

And the IC50 [2]?
The IC50 was ≤ 300 nM.
